Reference: publication PMC6257622, “Discovery and Structure–Activity-Relationship Study of N-Alkyl-5-hydroxypyrimidinone Carboxamides as Novel Antitubercular Agents Targeting Decaprenylphosphoryl-β-D-ribose 2′-Oxidase” (Journal of Medicinal Chemistry, 2018)
Values after ≈ are worked out from the molar mass of the structure shown. Values joined by “and” are separate entries in the source; they are usually repeats but may differ in a detail not shown here. Identical values can stand only once. Like-named read-outs stand apart in the source and are kept apart here.

Legend:
[1] = C57Bl/6 mice, oral, 10 mg/kg single dose
iniBAC promoter = type: cell-based, Mycobacterium tuberculosis
[2] = test system: anaerobic nonreplicating Mtb cells; type: cell-based, Mycobacterium tuberculosis; conditions: 7 days exposure, 1–50× aerobic MIC, Wayne model
recA and radA reporters = type: cell-based, Mycobacterium tuberculosis
Mtb strain H37Rv = assay: MIC determination against Mtb H37Rv in different media; type: cell-based, Mycobacterium tuberculosis
in vitro = type: cell-based; conditions: human; HepG2 cells in DMEM/10% FBS supplemented with glucose; read-out: Cytotoxicity (IC50) Glucose
HepG2 cells = assay: in vitro; type: cell-based; conditions: HepG2 cells in DMEM/10% FBS with galactose (mitochondrial toxicity); read-out: Cytotoxicity (IC50) Galactose
[3] = test system: Mtb in J774 murine macrophages; assay: Intracellular killing assay in murine macrophage J774; conditions: 1–50-fold MIC, 4 or 7 days
Protocol: For the ex vivo efficacy test, J774 cells (5 × 10^5 cells/well) were seeded in flat-bottom 24-well plates (Corning Inc.) in DMEM GlutaMAX (Gibco/ThermoFisher Scientific) supplemented with 10% fetal-bovine serum, 20 mM HEPES, and 0.5 mM sodium pyruvate (hereafter abbreviated as DMEM/FBS). Cells were infected with Mtb (5 × 10^5 cells/well, MOI 1) for 24 h; this was followed by medium removal and washing (2×) with an equal volume of Dulbecco’s PBS. Infected cells were fed DMEM/FBS and exposed to test compounds at 1×, 10×, 20×, and 50× MIC in medium (500 μL/well). Cells were incubated at 37 °C with 95% humidity and 5% CO2 in an incubator for 7 days. The medium was changed every 4 days. After 4 and 7 days of incubation, 0.1% SDS was added to each well to lyse the J774 cells. After 5 min, the lysate was thoroughly mixed and diluted in 7H9/ADC, and appropriate dilutions were plated in duplicate on 7H11/OADC plates.
Mtb cydC::aph strain = type: cell-based, Mycobacterium tuberculosis
actively replicating Mtb = type: cell-based, Mycobacterium tuberculosis

Cn1c(Cc2ccccc2C(F)(F)F)nc(C(=O)NCc2ccccc2)c(O)c1=O [Compound P01, N-Benzyl-5-hydroxy-1-methyl-6-oxo-2-(2-(trifluoromethyl)benzyl)-1,6-dihydropyrimidine-4-carboxamide]
AUC [1]: 1.06 µg·h/mL
CL [1]: 9.48
Tmax [1]: 1.0 h
Vd [1]: 33.7 L/kg
Cmax ([1]; suspension): 0.25 µg/mL
T1/2 ([1]; 10 mg/kg): 4 h and 4.1 h
reporter-gene assay cell wall (iniBAC promoter): positive
bactericidal activity against anaerobic nonreplicating Mtb [2]: lacked bactericidal activity
reporter-gene assay DNA damage (recA and radA reporters): no induction
MIC (Mtb strain H37Rv; Mycobacterium tuberculosis, H37RV, Mtb H37Rv in GAST (Table 2), read-out: MIC GAST): 0.59 µM
MIC (Mtb strain H37Rv; Mycobacterium tuberculosis, H37RV, Mtb H37Rv, GAST medium (Table 1), read-out: MIC GAST): 0.4 ± 0.2 µM
MIC (Mtb strain H37Rv; Mycobacterium tuberculosis, H37RV, pH 6, read-out: MIC nitrite/butyrate): 12.5 µM
MIC (Mtb strain H37Rv; Mycobacterium tuberculosis, H37RV, supplementary CSV, read-out: MIC in 7H9/ADC): 4.7 µM
MIC (Mtb strain H37Rv; Mycobacterium tuberculosis, H37RV, supplementary CSV, read-out: MIC in GAST/Fe): 0.59 µM
MIC (Mtb strain H37Rv; Mycobacterium tuberculosis, H37RV, read-out: MIC 7H9/ADC): 4.7 ± 1.5 µM
MIC (Mtb strain H37Rv; Mycobacterium tuberculosis, H37RV, read-out: MIC Chol): 1.6 µM
MIC (Mtb strain H37Rv; Mycobacterium tuberculosis, H37RV, read-out: MIC GBSA or DBSA): 3.1 µM
MIC (Mtb strain H37Rv; Mycobacterium tuberculosis, H37RV, read-out: MIC in 7H9/ADC): ~1.9 µg/mL
MIC (Mtb strain H37Rv; Mycobacterium tuberculosis, H37RV, read-out: MIC, DprE1 wild type): 3.13 µM
MIC (Mtb strain H37Rv; read-out: MIC 7H9/ADC): 4.7 µM
IC50 (in vitro): > 100 µM
IC50 (HepG2 cells): > 100 µM
activity against Mtb replication in J774 murine macrophages [3]: active
MIC CydKO (Mtb cydC::aph strain): 6.2 µM (≈ 2.59 µg/mL)
logarithmic reduction in colony-forming units (actively replicating Mtb): 1–2 log
